How the values were obtained:
[1] = target: PD-1/PD-L1 (Homo sapiens, UniProt Q9NZQ7); experiment: PD-1/PD-L1 biochemical protein-protein interaction assay (ALPHA); assay type: binding; conditions: 0.3 nM His tagged PD-L1, 2.5 nM biotinylated Fc-PD-1, 60 minutes at 25° C., read-out: IC50 PD-L1-PD-1 Alpha IC50-mono PD-L1-fcP-D1
In short: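 Compounds are tested for blocking the PD-1/PD-L1 extracellular-domain interaction using an ALPHA bead assay, in which inhibition lowers the luminescent signal. Reactions run 60 min at 25° C with 0.3 nM His-PD-L1 and 2.5 nM biotinylated Fc-PD-1. IC50 values come from four-parameter fits.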

[2] = target: T1, PD-1/PD-L1 interaction (Homo sapiens, UniProt Q9NZQ7); experiment: PD-1/PD-L1 NFAT reporter co-culture assay; assay type: cell-based; conditions: Jurkat PD-1 NFAT-luciferase cells co-cultured with aAPC-PD-L1 CHO cells, 6 hrs at 37° C.; read-out: EC50 NFAT Luciferase
T1 construct: expressed in transfected cells; host or cells: CHO cells (aAPC-PD-L1) co-cultured with Jurkat cells overexpressing PD-1 and an NFAT-luciferase reporter
In short: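 First, CHO cells displaying anti-CD3 antibody and PD-L1 were plated overnight. Next, compound-treated PD-1 Jurkat NFAT-luciferase reporter cells in 2% FBS RPMI were added for 6 h at 37 °C. Finally, ONE-Glo luminescence was read and EC50 values fitted with a four-parameter equation.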

[3] = target: T2, PD-L1 (Homo sapiens, UniProt Q9NZQ7); experiment: PD-L1/PD-L1 dimerization biochemical protein-protein interaction assay (ALPHA); assay type: binding; conditions: compound-induced PD-L1 dimerization, head prints '1 nM' (0.5 nM His-tagged PD-L1 and 0.5 nM FLAG-tagged PD-L1), read-out: AC50 PDL1 Dimer Alpha 1 nM
T2 construct: determine if they can specifically dimerize the extracellular domains of PD-L1
In short: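 ALPHA proximity assay of compound-induced dimerization of 0.5 nM His-tagged and 0.5 nM FLAG-tagged PD-L1 extracellular domains in Hepes pH 7.4 buffer, 2 h at 25 °C. Anti-His acceptor then anti-FLAG donor beads, 60 min each; AC50 from four-parameter fit.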

T1 sequence (Q9NZQ7 19-290): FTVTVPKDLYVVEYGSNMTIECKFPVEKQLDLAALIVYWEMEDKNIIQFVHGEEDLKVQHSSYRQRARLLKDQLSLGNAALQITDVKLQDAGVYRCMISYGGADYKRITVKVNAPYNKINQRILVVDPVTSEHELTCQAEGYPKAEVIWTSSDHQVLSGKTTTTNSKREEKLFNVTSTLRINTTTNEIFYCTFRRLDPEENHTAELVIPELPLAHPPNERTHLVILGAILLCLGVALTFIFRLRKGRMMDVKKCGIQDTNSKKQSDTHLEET
T2 sequence (Q9NZQ7 19-238 limits assumed): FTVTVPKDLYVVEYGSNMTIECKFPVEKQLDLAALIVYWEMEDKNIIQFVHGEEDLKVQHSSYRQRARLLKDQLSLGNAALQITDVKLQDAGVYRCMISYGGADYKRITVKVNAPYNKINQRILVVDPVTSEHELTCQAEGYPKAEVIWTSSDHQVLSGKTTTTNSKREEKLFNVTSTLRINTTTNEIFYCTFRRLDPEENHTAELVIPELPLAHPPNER
T2 sequence (Q9NZQ7 19-238 limits assumed): as above
Chain of PD-1/PD-L1 (Q9NZQ7 19-238 limits assumed): as above

Compound | IC50 [1] [nM] | EC50 [2] [nM] | AC50 [3] [nM]
COc1cc(-c2cccc(-c3cccc(-c4ccc(CNC[C@@H](O)CC(=O)O)c(OC)c4)c3C)c2C)ccc1CNC[C@@H](O)CC(=O)O [Example 317, (3S,3′S)-4,4′-(((3,3′″-dimethoxy-2′,2″-dimethyl-[1,1′:3′,1″:3″,1′″-quaterphenyl]-4,4′″-diyl)bis(methylene))bis(azanediyl))bis(3-hydroxybutanoic acid)] | 0.577 | 1100 | 1180
Cc1c(-c2ccc(CN3CC[C@@H](O)C3)cc2)cccc1-c1cccc(-c2ccc(CNC[C@@H](O)CC(=O)O)c(OCCCC#N)c2)c1C [Example 324, (S)-4-(((3-(3-cyanopropoxy)-4′″-(((R)-3-hydroxypyrrolidin-1-yl)methyl)-2′,2″-dimethyl-[1,1′:3′,1″:3″,1′″-quaterphenyl]-4-yl)methyl)amino)-3-hydroxybutanoic acid] | 0.505 | 894 | 1020
Cc1c(-c2ccc(CN3CC[C@@H](O)C3)cc2)cccc1-c1cccc(-c2ccc(CNC[C@@H](O)CC(=O)O)c(OC(F)(F)F)c2)c1C [Example 325, (S)-3-hydroxy-4-(((4′″-(((R)-3-hydroxypyrrolidin-1-yl)methyl)-2′,2″-dimethyl-3-(trifluoromethoxy)-[1,1′:3′,1″:3″,1′″-quaterphenyl]-4-yl)methyl)amino)butanoic acid] | 1.38 | 2580 | 633
Cc1c(COc2cc(OCc3cncc(C#N)c3)c(CNC[C@@H](O)CC(=O)O)cc2Cl)cccc1-c1cccc(-c2ccc(CNCc3cncc(C#N)c3)cc2)c1C [Example 326, (S)-4-((5-chloro-2-((5-cyanopyridin-3-yl)methoxy)-4-((4″-((((5-cyanopyridin-3-yl)methyl)amino)methyl)-2,2′-dimethyl-[1,1′:3′,1″-terphenyl]-3-yl)methoxy)benzyl)amino)-3-hydroxybutanoic acid] | 1.15 | 439 | 1210
Cc1c(COc2nc(OC[C@@H]3CCC(=O)N3)c(CNC[C@@H](O)CC(=O)O)cc2Br)cccc1-c1cccc(COc2nc(OC[C@@H]3CCC(=O)N3)c(CNC[C@@H](O)CC(=O)O)cc2Br)c1C [Example 328, (3S,3′S)-4,4′-((((((2,2′-dimethyl-[1,1′-biphenyl]-3,3′-diyl)bis(methylene))bis(oxy))bis(5-bromo-2-(((S)-5-oxopyrrolidin-2-yl)methoxy)pyridine-6,3-diyl))bis(methylene))bis(azanediyl))bis(3-hydroxybutanoic acid)] | 0.142 | 146 | 241
Cc1c(COc2cc(OCc3cncc(C#N)c3)c(CN[C@@](C)(CO)C(=O)O)cc2Cl)cccc1-c1cccc(-c2nnc(CCN)o2)c1C [Example 329, (S)-2-((4-((3′-(5-(2-aminoethyl)-1,3,4-oxadiazol-2-yl)-2,2′-dimethyl-[1,1′-biphenyl]-3-yl)methoxy)-5-chloro-2-((5-cyanopyridin-3-yl)methoxy)benzyl)amino)-3-hydroxy-2-methylpropanoic acid] | 0.284 | 466 | 290
Cc1c(COc2cc(OCc3cncc(C#N)c3)c(CNC[C@@H](O)CC(=O)O)cc2Cl)cccc1-c1cccc(-c2cn(C3CCNCC3)nn2)c1C [Example 330, (S)-4-((5-chloro-2-((5-cyanopyridin-3-yl)methoxy)-4-((2,2′-dimethyl-3′-(1-(piperidin-4-yl)-1H-1,2,3-triazol-4-yl)-[1,1′-biphenyl]-3-yl)methoxy)benzyl)amino)-3-hydroxybutanoic acid] | 0.188 | 1640 | 209
Cc1c(COc2cc(OCc3cncc(C#N)c3)c(CNC[C@@H](O)CC(=O)O)cc2Cl)cccc1-c1cccc(-c2cn(CC3CCNC3)nn2)c1C (stereo partly drawn) [Example 331] | 0.273 | 232 | 500
C[C@@](CO)(NCc1cc(Cl)c(O[C@H]2CCc3c(-c4cccc(-c5ccc(OCCNCCO)cc5)c4Cl)cccc32)nc1OCc1cc(C#N)cc(C#N)c1)C(=O)O [Example 332, (S)-2-(((5-chloro-6-(((S)-4-(2-chloro-4′-(2-((2-hydroxyethyl)amino)ethoxy)-[1,1′-biphenyl]-3-yl)-2,3-dihydro-1H-inden-1-yl)oxy)-2-((3,5-dicyanobenzyl)oxy)pyridin-3-yl)methyl)amino)-3-hydroxy-2-methylpropanoic acid] | 0.114 | 47 | 18.7

Results, then the compound that gave them:

IC50 [1] [nM] | EC50 [2] [nM] | AC50 [3] [nM] | Compound
0.074 | 168 | 67.1 | Cc1c(COc2cc(OCc3cncc(C#N)c3)c(CN[C@@](C)(CO)C(=O)O)cc2Cl)cccc1-c1cccc(-c2ccc(CNCC3CCC(=O)N3)cc2)c1C (stereo partly drawn) [Example 323, (2S)-2-((5-chloro-2-((5-cyanopyridin-3-yl)methoxy)-4-((2,2′-dimethyl-4″-((((5-oxopyrrolidin-2-yl)methyl)amino)methyl)-[1,1′:3′,1″-terphenyl]-3-yl)methoxy)benzyl)amino)-3-hydroxy-2-methylpropanoic acid]
0.289 | 481 | 203 | Cc1c(COc2cc(OCc3cncc(C#N)c3)c(CN3CC[C@@H](O)C3)cc2Cl)cccc1-c1cccc(-c2ccc(CNCCCCC(=O)O)cc2)c1C [Example 333, (R)-5-(((3″-((2-chloro-5-((5-cyanopyridin-3-yl)methoxy)-4-((3-hydroxypyrrolidin-1-yl)methyl)phenoxy)methyl)-2′,2″-dimethyl-[1,1′:3′,1″-terphenyl]-4-yl)methyl)amino)pentanoic acid]
0.414 | 437 | 231 | Cc1c(COc2cc(OCc3cncc(C#N)c3)c(CNC[C@@H](O)CC(=O)O)cc2Cl)cccc1-c1cccc(-c2ccc(CN3CC[C@H](O)C3)cc2)c1C [Example 335, (S)-4-((5-chloro-2-((5-cyanopyridin-3-yl)methoxy)-4-((4″-(((S)-3-hydroxypyrrolidin-1-yl)methyl)-2,2′-dimethyl-[1,1′:3′,1″-terphenyl]-3-yl)methoxy)benzyl)amino)-3-hydroxybutanoic acid]
0.124 | 398 | 109 | Cc1c(COc2cc(OCc3cncc(C#N)c3)c(CN[C@@](C)(CO)C(=O)O)cc2Cl)cccc1-c1cccc(-c2ccc(CN3CC[C@H](O)C3)cc2)c1C [Example 336, (S)-2-((5-chloro-2-((5-cyanopyridin-3-yl)methoxy)-4-((4″-(((S)-3-hydroxypyrrolidin-1-yl)methyl)-2,2′-dimethyl-[1,1′:3′,1″-terphenyl]-3-yl)methoxy)benzyl)amino)-3-hydroxy-2-methylpropanoic acid]
0.179 | 1060 | 140 | Cc1c(COc2cc(OCc3cncc(C#N)c3)c(CN[C@H]3CC[C@@H](C(=O)O)C3)cc2Cl)cccc1-c1cccc(-c2ccc(OCCNCCO)cc2)c1C [Example 338, (1R,3S)-3-((5-chloro-2-((5-cyanopyridin-3-yl)methoxy)-4-((4″-(2-((2-hydroxyethyl)amino)ethoxy)-2,2′-dimethyl-[1,1′:3′,1″-terphenyl]-3-yl)methoxy)benzyl)amino)cyclopentane-1-carboxylic acid]
